Measured values from patent US6201015A, “Therapeutic method for thrombocytopathy treatment” (priority 1996, dated 2001).
Read-outs that look alike come from different tables or passages of the source. Values belong to the compound of their own block, whether it stands above or below them.

Assays:
[1] = test system: platelets (platelet rich plasma); experiment: Antagonistic Action on Inhibition of Platelet Aggregation (ADP-induced, SQ-29548 present, BPS or PGD2 as inhibitor); format: cell-based, human (healthy subject); conditions: for IC50: Homo sapiens, Platelet, ADP-induced aggregation, SQ-29548
Description: A blood specimen sampled from a healthy subject was centrifuged to thereby separate platelet rich plasma (PRP) and platelet poor plasma (PPP). To the PRP was added SQ-29548, a TXA2 antagonist, and then Compound 1 was added one minute after, beraprost sodium (BPS), a prostacyclin derivative, or prostaglandin D2 (PGD2) was added to the PRP, and 1 minute thereafter, aggregation was induced by ADP. The 50% inhibitory concentration (IC50) of BPS or PGD2 was then calculated from the results. The experiment was performed on one group composed of three specimens. The results are set forth in Tables 3 and 4 (*: P<0.05, Paired t-test).

cAMP in the platelets = experiment: cAMP concentration in platelets stimulated with BPS (EIA kit); format: cell-based, human (healthy subject); conditions: for cyclic AMP (× basal level): SQ-29548, five cases
Description: A blood specimen taken from a healthy subject was centrifuged to thereby separate platelet rich plasma (PRP). To PRP was added SQ-29548, a TXA2 antagonist, and then Compound 1 was added thereto. After 1 minute, BPS (100 nM) was added to PRP, and then the reaction was stopped by 5% TCA. Thereafter, cAMP in the platelets was extracted and the cAMP concentration was determined with an EIA kit (BIOTRAK cAMP EIA SYSTEM, Amersham). The experiment was carried out on one group composed of five cases. The results are shown in Table 5 (*: P<0.05, Paired t-test).

[2] = test system: platelets (platelet rich plasma); experiment: Action on Platelet Aggregation (3): ADP-induced platelet aggregation in the presence of SQ-29548; format: cell-based, human (healthy subject); conditions: concentration within the range of 0.1 to 10 μM, Control 38 ± 4.9, *P<0.05 paired t-test
Description: A blood specimen taken from a healthy subject was centrifuged to thereby separate platelet rich plasma (PRP) and platelet poor plasma (PPP). To PRP was added SQ-29548, a TXA2 antagonist, and 1 minute after, platelet aggregation was induced by ADP, and immediately after induction, any of Compounds 2 to 4 having the following structural formulae was added to PRP. The experiment was performed on one group comprising three subjects. The results are set forth in Table 6 (*: P<0.05, Paired t-test).
Compound 2 to 4 were respectively used at a concentration within the range of 0.1 to 10 μM.

[3] = test system: platelets (platelet rich plasma); experiment: Action on Platelet Aggregation (1): aggregation induction in PRP in the presence of SQ-29548; format: cell-based, human (healthy subject); conditions: for Number of Aggregation Induction: PRP with SQ-29548, three samples
Description: A blood specimen sampled from a healthy subject was centrifuged to thereby separate platelet rich plasma (PRP) and platelet poor plasma (PPP). The agent SQ-29548 (refer to Prostaglandins, 1985;29;785), a TXA2 antagonist, was added to PRP, and 1 minute later, a test drug having the following structure (hereinafter referred to as "Compound 1") was added thereto. The experiment was conducted on one group comprising three samples.

[4] = test system: platelets (platelet rich plasma); experiment: Action on Platelet Aggregation (2): ADP-induced platelet aggregation in the presence of SQ-29548; format: cell-based, human (healthy subject)
Description: A blood specimen sampled from a healthy subject was centrifuged to thereby separate platelet rich plasma (PRP) and platelet poor plasma (PPP). SQ-29548, a TXA2 antagonist, was added to PRP, and 1 minute later, platelet aggregation was induced by ADP, and immediately after induction, Compound 1 was added thereto. The experiment was carried out on one group comprising three samples. The test results are shown in Table 2 (*: P<0.05, Paired t-test).

platelets = conditions: background; cited from earlier work
[5] = background; cited from earlier work
[6] = cited from earlier work
[7] = cited from earlier work; remark: listed apart in the source

IC50 ([1]; Compound 1 0 μM, read-out: IC50 of BPS): 7.99 ± 1.4 nM
IC50 ([1]; in the presence of Compound 1 0.1 μM, read-out: IC50 of BPS): 21.1 ± 4.7 nM
IC50 ([1]; in the presence of Compound 1 1 μM, *P<0.05, read-out: IC50 of BPS): 36.7 ± 7.4 nM
Compound: CC#CCC(C)[C@H](O)/C=C/[C@@H]1[C@H]2c3cccc(CCCC(=O)O)c3O[C@H]2C[C@H]1O (mixture of isomers) [BPS, beraprost sodium]
cyclic AMP (× basal level) (cAMP in the platelets; BPS 100 nM, Compound 1 0 μM): 8.46 ± 1.8 × basal level

Compound: CCCCC(C)(C)[C@H](O)/C=C/[C@@H]1[C@H]2c3cccc(CCC(=O)O)c3O[C@H]2C[C@H]1O (relative stereo) [Compound 2]
Platelet Aggregation Rate [2]: 45 ± 6.1%

Compound: CC(C)(Oc1ccccc1)[C@H](O)/C=C/[C@@H]1[C@H]2c3cccc(CCC(=O)O)c3O[C@H]2C[C@H]1O (relative stereo) [Compound 4]
Platelet Aggregation Rate [2]: 54 ± 4.1%

Compound: CC(C)(Oc1ccccc1)[C@H](O)/C=C/[C@@H]1[C@H]2c3cccc(CCC(=O)O)c3O[C@H]2C[C@H]1O [Compound 1]
Number of Aggregation Induction ([3]; Compound 1 0.1 μM): 0
Number of Aggregation Induction ([3]; Compound 1 1 μM): 0
Number of Aggregation Induction ([3]; Compound 1 10 μM): 0
induction of platelet aggregation (in words) ([3]; in the presence of SQ-29548, 0.1-10 μM): did not induce platelet aggregation
Platelet Aggregation Rate ([4]; Compound 1 0.1 μM, without Compound 1: 52.0 ± 2.5, *P<0.05 paired t-test): 61.3 ± 2.9%
Platelet Aggregation Rate ([4]; Compound 1 1 μM, without Compound 1: 52.0 ± 2.5, asterisk not given): 70.0 ± 3.0%
effect on aggregation of platelets (in words) ([4]; Compound 1 0.1 and 1 μM): enhanced aggregation of platelets
antagonism of inhibition of platelet aggregation (in words) ([1]; Compound 1 0.1 and 1 μM against BPS or PGD2): physiologically antagonized inhibitory actions of BPS and PGD2 on platelet aggregation
effect on cAMP production (in words) (cAMP in the platelets; BPS 100 nM, Compound 1 0.1 and 1 μM): inhibited cAMP production of BPS in platelets
cyclic AMP (× basal level) (cAMP in the platelets; Compound 1 0.1 μM with BPS 100 nM, *P<0.05): 6.45 ± 1.4 × basal level
cyclic AMP (× basal level) (cAMP in the platelets; Compound 1 1 μM with BPS 100 nM, *P<0.05): 3.98 ± 0.9 × basal level

Compound: O=C(O)CCc1cccc2c1OC1CC(O)C(C=CC(O)COc3ccccc3)C21 (centres unmarked) [Compound 3]
Platelet Aggregation Rate [2]: 43 ± 5.3%

Compound: CCCCC[C@H](O)/C=C/[C@@H]1[C@@H](CC(=O)CCCCC(=O)O)[C@@H](O)C[C@H]1O [Compound 6-oxo-PGF1a, 6-oxo-PGF1a]
known activity (in words) (platelets): almost no physiological activity

Compound: NC(=O)CC[C@@H]1NC(=O)[C@H](Cc2ccccc2)NC(=O)[C@H](Cc2ccc(O)cc2)NC(=O)CCSSC[C@@H](C(=O)N2CCC[C@H]2C(=O)N[C@H](CCCN=C(N)N)C(=O)NCC(N)=O)NC(=O)[C@H](CC(N)=O)NC1=O [DDAVP, 1-diamino 8-D-arginine vasopressin]
adverse drug reactions (in words) [5]: may induce arterial thrombosis and/or hyponatremia

IC50 ([1]; Compound 1 0 μM, read-out: IC50 of PGD2): 38.8 ± 2.5 nM
IC50 ([1]; in the presence of Compound 1 0.1 μM, read-out: IC50 of PGD2): 71.2 ± 8.2 nM
IC50 ([1]; in the presence of Compound 1 1 μM, *P<0.05, read-out: IC50 of PGD2): 194 ± 28 nM
Compound: CCCCC[C@H](O)/C=C/[C@H]1C(=O)C[C@H](O)[C@@H]1C/C=C\CCCC(=O)O [PGD2, prostaglandin D2]

Compound: CCCCC[C@H](O)/C=C/[C@@H]1[C@H]2C/C(=C/CCCC(=O)O)O[C@H]2C[C@H]1O [PGI2, prostaglandin I2]
stability and duration of activity in vivo (in words) [6]: unstable in vivo and its activity is not long-lasting
stability in neutral aqueous solution (in words) [7]: extremely unstable even in a neutral aqueous solution
known activity (in words) (platelets): strong antiplatelet activity and telangiectatic activity
